Measurements published in US8440708B2, “Triazole-substituted arylamides as P2X3 and P2X2/3 antagonists” (Roche Palo Alto LLC, priority 2007, dated 2013).

Assays:
rat P2X3 receptor = target: T1, rat P2X3 receptor (Rattus norvegicus, UniProt P49654); assay: P2X3/P2X2/3 FLIPR (Fluorometric Imaging Plate Reader) Assay, P2X3; type: cell-based; details: CHO-K1 cells transfected with rat P2X3; agonist α,β-meATP 1 μM; Table 1; read-out: P2X3 pKi (converted)
T1 construct: expressed in transfected cells; host or cells: CHO-K1
T1 sequence (P49654 1-397): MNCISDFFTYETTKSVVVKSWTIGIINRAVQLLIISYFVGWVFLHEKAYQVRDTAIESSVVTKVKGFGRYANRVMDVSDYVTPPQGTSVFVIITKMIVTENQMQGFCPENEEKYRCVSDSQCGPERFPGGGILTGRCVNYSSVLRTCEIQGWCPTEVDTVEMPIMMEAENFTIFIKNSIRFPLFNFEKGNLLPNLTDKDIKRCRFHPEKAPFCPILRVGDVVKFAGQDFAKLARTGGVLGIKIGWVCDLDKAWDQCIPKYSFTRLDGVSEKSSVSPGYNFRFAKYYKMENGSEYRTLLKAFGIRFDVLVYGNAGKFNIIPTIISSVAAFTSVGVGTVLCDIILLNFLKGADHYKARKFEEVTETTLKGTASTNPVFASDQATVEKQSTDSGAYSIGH
Method in brief: (§1)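 Transfected CHO-K1 (rat P2X3; human P2X2/3), Fluo-3 AM 2 μM 1 h 37 °C, buffer HBSS/10 mM HEPES/2 mM CaCl2/2.5 mM probenecid. Cpd 20 min RT, then α,β-meATP 1 μM (P2X3) / 5 μM (P2X2/3). Peak Ca2+ signal, nonlinear regression.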

human P2X2/3 receptor = target: T2, human P2X2/3 receptor (Homo sapiens, UniProt P56373+Q9UBL9); assay: P2X3/P2X2/3 FLIPR (Fluorometric Imaging Plate Reader) Assay, P2X2/3; type: cell-based; details: CHO-K1 cells transfected with human P2X2/3; agonist α,β-meATP 5 μM; Table 1; read-out: P2X2/3 pKi (converted)
T2 construct: expressed in transfected cells; host or cells: CHO-K1
T2 sequence (Q9UBL9 1-471): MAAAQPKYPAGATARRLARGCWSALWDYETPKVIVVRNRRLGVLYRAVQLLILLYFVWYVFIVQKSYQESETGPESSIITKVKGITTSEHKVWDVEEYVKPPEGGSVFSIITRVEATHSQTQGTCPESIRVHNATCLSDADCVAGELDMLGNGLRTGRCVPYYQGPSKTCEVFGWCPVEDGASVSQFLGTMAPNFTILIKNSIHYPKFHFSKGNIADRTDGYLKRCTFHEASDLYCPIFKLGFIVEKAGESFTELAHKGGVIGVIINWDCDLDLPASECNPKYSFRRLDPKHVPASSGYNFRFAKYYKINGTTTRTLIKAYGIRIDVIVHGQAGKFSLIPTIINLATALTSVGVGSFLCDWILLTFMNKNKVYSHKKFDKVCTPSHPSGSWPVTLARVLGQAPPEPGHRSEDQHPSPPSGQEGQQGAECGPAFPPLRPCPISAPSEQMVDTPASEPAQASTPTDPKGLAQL
T2 sequence (P56373 1-397): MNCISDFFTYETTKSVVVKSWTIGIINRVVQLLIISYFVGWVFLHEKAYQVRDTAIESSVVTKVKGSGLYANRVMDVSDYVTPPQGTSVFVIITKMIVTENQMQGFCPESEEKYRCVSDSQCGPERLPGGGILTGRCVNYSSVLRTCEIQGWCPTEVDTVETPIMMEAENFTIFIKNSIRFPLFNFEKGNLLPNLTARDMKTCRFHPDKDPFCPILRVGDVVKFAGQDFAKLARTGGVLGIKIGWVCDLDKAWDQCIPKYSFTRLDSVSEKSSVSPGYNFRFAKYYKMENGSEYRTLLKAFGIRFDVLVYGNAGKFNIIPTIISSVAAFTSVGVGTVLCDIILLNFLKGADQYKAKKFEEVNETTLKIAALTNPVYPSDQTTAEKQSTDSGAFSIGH
Method in brief: as §1

Structure (SMILES) | Ki (rat P2X3 receptor) [nM] | Ki (human P2X2/3 receptor) [nM]
Cc1ccc(-c2cc(C(=O)NCc3ccc(=O)n(C)c3)cc(-n3ncnc3C(C)C)c2)nc1 [Compound 153, 3-(5-Isopropyl-[1,2,4]triazol-1-yl)-N-(1-methyl-6-oxo-1,6-dihydro-pyridin-3-ylmethyl)-5-(5-methyl-pyridin-2-yl)-benzamide] | 26.9 | 4370
COCCc1nc(C)nn1-c1cc(C(=O)N[C@@H](C)CO)cc(-c2ccc(C)cn2)c1 [Compound 155, N-((S)-2-Hydroxy-1-methyl-ethyl)-3-[5-(2-methoxy-ethyl)-3-methyl-[1,2,4]triazol-1-yl]-5-(5-methyl-pyridin-2-yl)-benzamide] | 3310 | 10000
Cc1ccc(-c2cc(C(=O)NCc3cnc(C)cn3)cc(-n3ncnc3CC(C)(C)O)c2)nc1 [Compound 156, 3-[5-(2-Hydroxy-2-methyl-propyl)-[1,2,4]triazol-1-yl]-N-(5-methyl-pyrazin-2-ylmethyl)-5-(5-methyl-pyridin-2-yl)-benzamide] | 123 | 10000
Cc1ccc(-c2cc(C(=O)NCc3cnc(C)cn3)cc(-n3ncnc3C3CN(C)C3)c2)nc1 [Compound 157, 3-[5-(1-Methyl-azetidin-3-yl)-[1,2,4]triazol-1-yl]-N-(5-methyl-pyrazin-2-ylmethyl)-5-(5-methyl-pyridin-2-yl)-benzamide] | 676 | 10000
Cc1cnc(CNC(=O)c2cc(-c3ccc(Cl)cn3)cc(-n3ncnc3C(C)N(C)C)c2)cn1 (stereo not drawn) [Compound 158, 3-(5-Chloro-pyridin-2-yl)-5-[5-(1-dimethylamino-ethyl)-[1,2,4]triazol-1-yl]-N-(5-methyl-pyrazin-2-ylmethyl)-benzamide] | 37.2 | 851
Cc1ccc(-c2cc(C(=O)NCc3ccn(C)c(=O)c3)cc(-n3ncnc3C(C)C)c2)nc1 [Compound 159, 3-(5-Isopropyl-[1,2,4]triazol-1-yl)-N-(1-methyl-2-oxo-1,2-dihydro-pyridin-4-ylmethyl)-5-(5-methyl-pyridin-2-yl)-benzamide] | 2.95 | 26.3
Cc1ccc(-c2cc(-n3ncnc3C(F)(F)F)cc(C(=O)N[C@@H](C)CO)c2F)nc1 [Compound 167, 2-Fluoro-N-((S)-2-hydroxy-1-methyl-ethyl)-3-(5-methyl-pyridin-2-yl)-5-(5-trifluoromethyl-[1,2,4]triazol-1-yl)-benzamide] | 2.51 | 12
Cc1ccc(-c2cc(-n3ncnc3C(F)(F)F)cc(C(=O)NC(C)c3cnccn3)c2F)nc1 (stereo not drawn) [Compound 168, 2-Fluoro-3-(5-methyl-pyridin-2-yl)-N-(1-pyrazin-2-yl-ethyl)-5-(5-trifluoromethyl-[1,2,4]triazol-1-yl)-benzamide] | 13.5 | 2690
Cc1ccc(-c2cc(-n3ncnc3C(F)(F)F)cc(C(=O)NCc3cnc(C)cn3)c2F)nc1 [Compound 169, 2-Fluoro-N-(5-methyl-pyrazin-2-ylmethyl)-3-(5-methyl-pyridin-2-yl)-5-(5-trifluoromethyl-[1,2,4]triazol-1-yl)-benzamide] | 4.27 | 95.5
Cc1ccc(-c2cc(-n3ncnc3C(C)C)cc(C(=O)N[C@@H](C)CO)c2F)nc1 [Compound 174, 2-Fluoro-N-((S)-2-hydroxy-1-methyl-ethyl)-5-(5-isopropyl-[1,2,4]triazol-1-yl)-3-(5-methyl-pyridin-2-yl)-benzamide] | 6.46 | 1620
Cc1ccc(-c2cc(-n3ncnc3C(F)(F)F)cc(C(=O)NCc3ccc(C)nn3)c2F)nc1 [Compound 176, 2-Fluoro-N-(6-methyl-pyridazin-3-ylmethyl)-3-(5-methyl-pyridin-2-yl)-5-(5-trifluoromethyl-[1,2,4]triazol-1-yl)-benzamide] | 3.72 | 32.4
Cc1ccc(-c2cc(C(=O)N[C@@H](C)c3cnccn3)cc(-n3ncnc3C(F)(F)F)c2)nc1 [Compound 180, 3-(5-Methyl-pyridin-2-yl)-N-((S)-1-pyrazin-2-yl-ethyl)-5-(5-trifluoromethyl-[1,2,4]triazol-1-yl)-benzamide] | 6.61 | 46.8

Further lines, results first:

Ki (rat P2X3 receptor) [nM] | Ki (human P2X2/3 receptor) [nM] | Structure (SMILES)
11.5 | 302 | Cc1ccc(-c2cc(C(=O)NCc3cnc(C)cn3)cc(-n3ncnc3C(F)(F)F)c2F)nc1 [Compound 164, 4-Fluoro-N-(5-methyl-pyrazin-2-ylmethyl)-3-(5-methyl-pyridin-2-yl)-5-(5-trifluoromethyl-[1,2,4]triazol-1-yl)-benzamide]
16.6 | 209 | Cc1ccc(-c2cc(C(=O)NCc3ncc(C)cn3)cc(-n3ncnc3C(F)(F)F)c2)nc1 [Compound 171, 3-(5-Methyl-pyridin-2-yl)-N-(5-methyl-pyrimidin-2-ylmethyl)-5-(5-trifluoromethyl-[1,2,4]triazol-1-yl)-benzamide]
3.98 | 85.1 | Cc1ccc(-c2cc(-n3ncnc3C(C)C)cc(C(=O)NC(C)c3cnccn3)c2F)nc1 (stereo not drawn) [Compound 173, 2-Fluoro-5-(5-isopropyl-[1,2,4]triazol-1-yl)-3-(5-methyl-pyridin-2-yl)-N-(1-pyrazin-2-yl-ethyl)-benzamide]
24 | 151 | Cc1ccc(-c2cc(-n3ncnc3C(F)(F)F)cc(C(=O)NCc3ncc(C)cn3)c2F)nc1 [Compound 177, 2-Fluoro-3-(5-methyl-pyridin-2-yl)-N-(5-methyl-pyrimidin-2-ylmethyl)-5-(5-trifluoromethyl-[1,2,4]triazol-1-yl)-benzamide]
3.63 | 51.3 | Cc1ccc(-c2cc(-n3ncnc3C(F)(F)F)cc(C(=O)NCc3cnc(C)nc3)c2F)nc1 [Compound 178, 2-Fluoro-3-(5-methyl-pyridin-2-yl)-N-(2-methyl-pyrimidin-5-ylmethyl)-5-(5-trifluoromethyl-[1,2,4]triazol-1-yl)-benzamide]
24.5 | 339 | Cc1ccc(-c2cc(C(=O)N[C@H](C)CN3CCOCC3)cc(-n3ncnc3C(F)(F)F)c2)nc1 [Compound 179, N-((R)-1-Methyl-2-morpholin-4-yl-ethyl)-3-(5-methyl-pyridin-2-yl)-5-(5-trifluoromethyl-[1,2,4]triazol-1-yl)-benzamide]
